Results taken from article PMC9034499, “RORγt agonist enhances anti-PD-1 therapy by promoting monocyte-derived dendritic cells through CXCL10 in cancers” (Journal of Experimental & Clinical Cancer Research : CR, 2022).

Legend:
[1] = test system: mouse Th17 cells; assay: IL-17A secretion by Th17 cells (ELISA); type: cell-based; conditions: ELISA of supernatant, 0 to 160 nM
Experimental: CD4^+ CD25^−CD62L^high cells were purified from C57BL/6 splenocytes using an EasySep Mouse Naïve CD4^+ T cell isolation kit from STEMCELL Technologies (Vancouver, Canada), and they were differentiated into Th17 cells (TGF-β, 2 ng/ml; IL-6, 20 ng/ml; Anti-IFN-γ, 10 μg/ml; Anti-IL-4, 10 μg/ml, BioLegend, San Diego, CA) in the presence of plate-bound anti-CD3 (5 μg/ml, BioLegend, San Diego, CA) and anti-CD28 (2 μg/ml, BioLegend, San Diego, CA). The cells were harvested and processed for cytokine analysis at the RNA or protein level using real-time qPCR, flow cytometry, and ELISA on day five. […]
The intracellular cytokines by TILs or in vitro differentiated T helper cells were quantified after restimulation with PMA plus ionomycin in the presence of GolgiStop for 6 h. The total RNA was isolated using the improved TRizol-based (Sigma, Darmstadt, Germany) method for qPCR analysis, and the mRNA expression was analyzed using a StepOnePlus (Life Technologies, Carlsbad, USA) real-time PCR instrument using housekeeping gene β-actin and Gapdh internal standards. qPCR was performed using A Power SYBR Green PCR Master Mix (Accurate Biology, Hunan, China) and two-cycle amplification for 40 cycles followed by the melting curve. […]

[2] = Pharmacokinetics in C57BL/6 mice; type: in vivo; conditions: male, C57BL/6, mouse, plasma; for Tmax: n = 3
Experimental: Male C57BL/6 mice were divided into two groups: 8-074 single intravenous injection group (2 mg/kg, n = 3) and 8-074 single gavage group (5 mg/kg, n = 3). After administration, blood samples were collected at 0.25, 0.5, 1, 2, 5, 7, and 24 h. Then the plasma samples were separated and stored at − 80 °C until the analysis. After being thawed at room temperature, 10 μL of plasma samples were added with 150 μL of precipitant containing the internal standard (verapamil 40 ng/mL) for the protein precipitation. The supernatant was mixed with a suitable volume of water and then analyzed using liquid chromatography in tandem with mass spectrometry (LC-MS/MS). The concentration of 8–074 in the plasma of the C57 mice after administration was determined using the inter-run standard curve samples (linear range of 3–10,000 ng/mL) and quality control samples.

- EC50 [1]: 22.8 nM
- MRT inf ([2]; iv, 2 mg/kg, i.v. 2 mg/kg, first MRTINF line (r8)): 3.84 ± 0.33 h
- MRT inf ([2]; iv, 2 mg/kg, i.v. 2 mg/kg, second MRTINF line (r9)): 2.97 ± 0.25 h
- AUC(0-inf) ([2]; iv, i.v. 2 mg/kg): 20600 ng·h/mL
- AUC(0-t) ([2]; iv, i.v. 2 mg/kg): 20500 ng·h/mL
- Cmax ([2]; iv, i.v. 2 mg/kg): 4800 ± 1200 ng/mL
- clearance ([2]; iv, i.v. 2 mg/kg): 1.63 ± 0.11 mL/min/kg
- Tmax ([2]; iv, i.v. 2 mg/kg): 0.25 h
- bioavailability ([2]; oral, i.g. 5 mg/kg vs i.v. 2 mg/kg): 38%
- MRT inf ([2]; po, 5 mg/kg, i.g. 5 mg/kg, first MRTINF line (r8)): 4.49 ± 1.2 h
- MRT inf ([2]; po, 5 mg/kg, i.g. 5 mg/kg, second MRTINF line (r9)): 3.34 ± 0.52 h
- AUC(0-inf) ([2]; po, i.g. 5 mg/kg): 19800 ng·h/mL
- AUC(0-t) ([2]; po, i.g. 5 mg/kg): 19700 ng·h/mL
- Cmax ([2]; po, i.g. 5 mg/kg): 3020 ± 110 ng/mL
- Tmax ([2]; po, i.g. 5 mg/kg): 1.67 ± 0.58 h
- half-life ([2]; po, single intragastric administration of 5 mg/kg): 3.34 ± 0.52 h
- AUC ([2]; route not given): 20600 ± 1500 ng·h/mL
Structure (SMILES): CCS(=O)(=O)c1ccc(CC(=O)Nc2ccc(-c3ccc(CC(C)C)c(C#N)c3)c(C(F)(F)F)c2)cc1 [8-074]
